Converted amounts (≈) assume the structure as drawn. Read-outs that look alike come from different tables or passages of the source. Where a SMILES comes first, the peptide text is derived from it. Bridges are numbered along the chain shown (N, C = ends). [ ]: non-standard residue; d: D form. The star is where a group is joined. Phe(3,5-F2) = N[C@@H](Cc1cc(F)cc(F)c1)C(=O)O; Heptenoyl(2E) = CCCC/C=C/C(=O)*; aThr = C[C@H](O)[C@H](N)C(=O)O; Pip = O=C(O)[C@@H]1CCCCN1
Key:
Sa-ClpP = biological target: T1, Sa-ClpP (Staphylococcus aureus, UniProt Q2G036); assay: ClpP activation, EnzCheck Protease Assay with Bodipy-FL casein (second described method); assay type: biochemical, S. aureus
T1 construct: made in house; host or cells: E. coli BL21 (DE3)
T1 sequence (Q2G036 whole entry): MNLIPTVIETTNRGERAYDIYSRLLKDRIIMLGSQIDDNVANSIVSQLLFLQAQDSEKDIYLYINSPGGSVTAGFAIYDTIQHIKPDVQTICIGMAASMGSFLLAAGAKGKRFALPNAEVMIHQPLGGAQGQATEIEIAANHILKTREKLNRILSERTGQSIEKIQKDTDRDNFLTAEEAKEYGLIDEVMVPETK
In short: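 Sa-ClpP (2 μM in master mix) with Bodipy-FL casein (2 μM in master mix) in Tris-HCl pH 8.0, 0.01% Triton X-100, compounds in 2% DMSO, triplicate. Fluorescence (ex 485/em 520 nm) followed 30 min; degradation slopes normalized to ADEP4 and DMSO controls, EC50 and % activation by four-parameter fit.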

S. pneumoniae R6 = assay: Minimal inhibitory concentration, microbroth dilution; assay type: cell-based; details: Streptococcus pneumoniae, R6; read-out: Minimal Inhibitory Concentration S. pneumoniae R6
In short: (§1)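 Twofold serial dilutions in broth per CLSI M7-A7 microbroth dilution, incubated aerobically overnight at 37° C. MIC read visually as lowest concentration preventing bacterial growth.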

S. aureus USA 300 ΔClpP = assay: as above; assay type: cell-based, Staphylococcus aureus; details: ClpP inactivated strain
In short: (§2)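 Susceptibility testing used the CLSI dilution standard, with bacteria at ~10^5 cfu/mL exposed to a two-fold compound series beginning at 200 μM final. The endpoint is the lowest concentration showing no growth after overnight incubation (37 °C, aerobic).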

in vitro = details: CD-1, mouse, microsomes, pH 7.4
Description: Compounds were initially prepared by dissolving them into DMSO at a final concentration of 10 mM. NADPH regenerating solutions A and B and mouse liver microsomes (CD-1) were obtained from BD Gentest (Woburn, Mass.). Ninety-six well deep well plates were obtained from MidWest Scientific Inc (Valley Park, Mo.).
Sample preparation for microsomal stability was modified from methods of Di, L., et al., Int J Pharm. 2005 Jun. 13; 297(1-2): 110-9. A set of incubation times of 0, 15, 30, 60, 120, and 240 minutes were used. Mouse liver microsomal solutions were prepared by adding 58 μL of concentrated human or mouse liver microsomes (20 mg/mL protein concentration) to 1.756 mL of 0.1 M potassium phosphate buffer (pH 7.4) and 5 μL of 0.5 M EDTA to make a 0.6381 mg/mL (protein) microsomal solution. NADPH regenerating agent contained 113 μL of NADPH A, 23 μL of NADPH B, and 315 μL of 0.1 M potassium phosphate buffer (pH 7.4). The diluted test compound solutions (2 μL) were each added directly to a 1.79 mL of liver microsomal solution. This solution was mixed and 90 μL was transferred to 6 time points plates (each in triplicate wells). For the time 0 plate, 225 μL of cold acetonitrile with internal standard ([…] warfarin) was added to each well, followed by addition of NADPH regenerating agent (22.5 μL) and no incubation. For other five time points' plate, NADPH regenerating agent (22.5 μL) was added to each well to initiate the reaction. The plates were incubated at 37° C. for the required time, followed by quenching of the reaction by adding 225 μL of cold acetonitrile with internal standard (4 μg/ml warfarin). All of the plates were sealed and mixed well at 600 rpm for 10 minutes followed by centrifugation at 4000 rpm for 20 minutes. The supernatants (120 μL) were transferred to analytical plates for analysis by LCMS. LCMS conditions were described in the materials and instrumentation section above. The metabolic stability is evaluated via the half-life from least-squares fit of the multiple time points based on first-order kinetics.

S. pyogenes ATCC 700294 = assay: Minimal inhibitory concentration, microbroth dilution; assay type: cell-based; details: Streptococcus pyogenes, ATCC700294, read-out: Minimal Inhibitory Concentration S. pyogenes ATCC 700294
In short: as §1

S. pneumoniae DAW27 = assay: as above; assay type: cell-based; details: Streptococcus pneumoniae, DAW27, read-out: Minimal Inhibitory Concentration S. pneumoniae DAW27
In short: as §2

E. coli K12ΔtolC = assay: as above; assay type: cell-based
In short: as §2

E. faecails ATCC 33186 = assay: as above; assay type: cell-based; details: Enterococcus faecalis, ATCC33186, read-out: Minimal Inhibitory Concentration E. faecails ATCC 33186
In short: as §2

[1] = read-out: ClpP Activation EC50 (converted)

| SMILES | EC50 (Sa-ClpP) | MIC (S. pneumoniae R6) | Minimal Inhibitory Concentration S. aureus USA 300 ΔClpP (S. aureus USA 300 ΔClpP) | half-life (in vitro) | EC50 (Sa-ClpP; [1]) | MIC (S. pyogenes ATCC 700294) | MIC (S. pneumoniae DAW27) | Minimal Inhibitory Concentration E. coli K12ΔtolC (E. coli K12ΔtolC) | MIC (E. faecails ATCC 33186) |
| --- | --- | --- | --- | --- | --- | --- | --- | --- | --- |
| C[C@H]1C[C@H]2C(=O)O[C@@H](C)[C@H](NC(=O)[C@H](Cc3cc(F)cc(F)c3)NC(=O)Nc3ccc4c(c3)OCO4)C(=O)N3CCC[C@H]3C(=O)N3CCCC[C@H]3C(=O)N[C@@H](C)C(=O)N2C1 [Compound 20, (S)-2-(3-(Benzo[D][1,3]Dioxol-5-Yl)Ureido)-3-(3,5-Difluorophenyl)-N-((2R,6S,8aS,14aS,20S,21 S,23aS)-2,6,21-Trimethyl-5,8,14,19,23-Pentaoxooctadecahydro-1H,5H,14H,19H-Pyrido[2,1-I]Dipyrrolo[2,1-C:2′,1′-L][1]Oxa[4,7,10,13]Tetraazacyclohexadecin-20-Yl)Propanamide] | 360 nM | < 0.1 µM | 200 µM | 6.9 ± 1.3 h | – | – | – | – | – |
| C[C@@H]1C[C@H]2C(=O)OC[C@H](NC(=O)[C@H](Cc3ccccc3)NC(=O)Nc3ccc(N(C)C)cc3)C(=O)N3CCC[C@H]3C(=O)N3CCCC[C@H]3C(=O)N[C@@H](C)C(=O)N2C1 [Compound 5, (S)—N-((2R,6S,8aS,14aS,20S,23aS)-2,6-Dimethyl-5,8,14,19,23-Pentaoxooctadecahydro-1H,5H,14H,19H-Pyrido[2,1-1]Dipyrrolo[2,1-C:2′,1′-L][1]Oxa[4,7,10,13]Tetraazacyclohexadecin-20-Yl)-2-(3-(4-(Dimethylamino)Phenyl)Ureido)-3-Phenylpropanamide] | – | – | – | – | 1500 nM | 0.78 µM (≈ 0.614 µg/mL) | 0.39 µM (≈ 0.307 µg/mL) | 50 µM | 0.78 µM (≈ 0.614 µg/mL) |
| C[C@@H]1NC(=O)[C@@H]2CCCCN2C(=O)[C@@H]2CCCN2C(=O)[C@@H](NC(=O)[C@H](Cc2cc(F)cc(F)c2)NC(=O)Nc2ccc3c(c2)OCO3)[C@H](C)OC(=O)[C@@H]2CCCN2C1=O [Compound 17, (S)-2-(3-(Benzo[D][1,3]Dioxol-5-Yl)Ureido)-3-(3,5-Difluorophenyl)-N-((6S,8aS,14aS,20S,21 S,23aS)-6,21-Dimethyl-5,8,14,19,23-Pentaoxooctadecahydro-1H,5H,14H,19H-Pyrido[2,1-I]Dipyrrolo[2,1-C:2′,1′-L][1]Oxa[4,7,10,13]Tetraazacyclohexadecin-20-Yl)Propanamide] | 720 nM | 0.8 µM (≈ 0.659 µg/mL) | 200 µM | 8.1 ± 1.1 h | – | – | – | – | – |
| COc1ccc(NC(=O)N[C@@H](Cc2ccccc2)C(=O)N[C@H]2COC(=O)[C@@H]3C[C@@H](C)CN3C(=O)[C@H](C)NC(=O)[C@@H]3CCCCN3C(=O)[C@@H]3CCCN3C2=O)cc1 [Compound 6, (S)—N-((2R,6S,8aS,14aS,20S,23aS)-2,6-Dimethyl-5,8,14,19,23-Pentaoxooctadecahydro-1H,5H,14H,19H-Pyrido[2,1-1]Dipyrrolo[2,1-C:2′,1′-L][1]Oxa[4,7,10,13]Tetraazacyclohexadecin-20-Yl)-2-(3-(4-Methoxyphenyl)Ureido)-3-Phenylpropanamide] | – | – | – | – | 800 nM | 0.39 µM (≈ 0.302 µg/mL) | 0.2 µM (≈ 0.155 µg/mL) | 50 µM | 0.78 µM (≈ 0.604 µg/mL) |
| C[C@@H]1C[C@H]2C(=O)OC[C@H](NC(=O)[C@H](Cc3ccccc3)NC(=O)Nc3ccccc3Cl)C(=O)N3CCC[C@H]3C(=O)N3CCCC[C@H]3C(=O)N[C@@H](C)C(=O)N2C1 [Compound 7, (S)-2-(3-(2-Chlorophenyl)Ureido)-N-((2R,6S,8aS,14aS,20S,23aS)-2,6-Dimethyl-5,8,14,19,23-Pentaoxooctadecahydro-1H,5H,14H,19H-Pyrido[2,1-I]Dipyrrolo[2,1-C:2′,1′-L][1]Oxa[4,7,10,13]Tetraazacyclohexadecin-20-Yl)-3-Phenylpropanamide] | – | – | – | – | 1600 nM | 3.13 µM (≈ 2.44 µg/mL) | 0.78 µM (≈ 0.607 µg/mL) | 200 µM | 3.13 µM (≈ 2.44 µg/mL) |
| C[C@@H]1C[C@H]2C(=O)OC[C@H](NC(=O)[C@H](Cc3ccccc3)NC(=O)Nc3cccc(Cl)c3)C(=O)N3CCC[C@H]3C(=O)N3CCCC[C@H]3C(=O)N[C@@H](C)C(=O)N2C1 [Compound 9, (S)-2-(3-(3-Chlorophenyl)Ureido)-N-((2R,6S,8aS,14aS,20S,23aS)-2,6-Dimethyl-5,8,14,19,23-Pentaoxooctadecahydro-1H,5H,14H,19H-Pyrido[2,1-I]Dipyrrolo[2,1-C:2′,1′-L][1]Oxa[4,7,10,13]Tetraazacyclohexadecin-20-Yl)-3-Phenylpropanamide] | – | – | – | – | 1100 nM | 1.56 µM (≈ 1.21 µg/mL) | 0.78 µM (≈ 0.607 µg/mL) | 25 µM | 1.56 µM (≈ 1.21 µg/mL) |
| CCCC/C=C/C(=O)N[C@@H](Cc1cc(F)cc(F)c1)C(=O)N[C@@H]1C(=O)N2CCC[C@H]2C(=O)N2CCCC[C@H]2C(=O)N[C@@H](C)C(=O)N2CCC[C@H]2C(=O)O[C@H]1C [ADEP 2719, reference compound] ({Heptenoyl(2E)}-[Phe(3,5-F2)][aThr]P[Pip]AP; ester 2-C) | – | < 0.2 µM | 500 µM | 0.1 h | 380 ± 10 nM | – | – | – | – |
| Cc1ccc(NC(=O)N[C@@H](Cc2cc(F)cc(F)c2)C(=O)N[C@H]2COC(=O)[C@@H]3C[C@@H](C)CN3C(=O)[C@H](C)NC(=O)[C@@H]3CCCCN3C(=O)[C@@H]3CCCN3C2=O)cc1 [Compound 24, (S)-3-(3,5-Difluorophenyl)-N-((2R,6S,8aS,14aS,20S,23aS)-2,6-Dimethyl-5,8,14,19,23-Pentaoxooctadecahydro-1H,5H,14H,19H-Pyrido[2,1-I]Dipyrrolo[2,1-C:2′,1′-L][1]Oxa[4,7,10,13]Tetraazacyclohexadecin-20-Yl)-2-(3-(P-Tolyl)Ureido)Propanamide] | – | – | – | – | 400 nM | 0.5 µM (≈ 0.397 µg/mL) | – | – | – |
| C[C@@H]1C[C@H]2C(=O)OC[C@H](NC(=O)[C@H](Cc3ccccc3)NC(=O)Nc3ccc4c(c3)CCN4C)C(=O)N3CCC[C@H]3C(=O)N3CCCC[C@H]3C(=O)N[C@@H](C)C(=O)N2C1 [Compound 11, (S)—N-((2R,6S,8aS,14aS,20S,23aS)-2,6-Dimethyl-5,8,14,19,23-Pentaoxooctadecahydro-1H,5H,14H,19H-Pyrido[2,1-I]Dipyrrolo[2,1-C:2′,1′-L][1]Oxa[4,7,10,13]Tetraazacyclohexadecin-20-Yl)-2-(3-(1-Methylindolin-5-Yl)Ureido)-3-Phenylpropanamide] | – | – | – | – | 1100 nM | 0.6 µM (≈ 0.479 µg/mL) | 0.3 µM (≈ 0.24 µg/mL) | – | 0.6 µM (≈ 0.479 µg/mL) |
| C[C@@H]1C[C@H]2C(=O)OC[C@H](NC(=O)[C@H](Cc3ccccc3)NC(=O)Nc3ccc(Cl)cc3)C(=O)N3CCC[C@H]3C(=O)N3CCCC[C@H]3C(=O)N[C@@H](C)C(=O)N2C1 [Compound 3, (S)-2-(3-(4-Chlorophenyl)Ureido)-N-((2R,6S,8aS,14aS,20S,23aS)-2,6-Dimethyl-5,8,14,19,23-Pentaoxooctadecahydro-1H,5H,14H,19H-Pyrido[2,1-I]Dipyrrolo[2,1-C:2′,1′-L][1]Oxa[4,7,10,13]Tetraazacyclohexadecin-20-Yl)-3-Phenylpropanamide] | – | – | – | – | 1500 nM | 0.39 µM (≈ 0.304 µg/mL) | 0.2 µM (≈ 0.156 µg/mL) | 25 µM | 0.2 µM (≈ 0.156 µg/mL) |

From patent US9879050B2, “Substituted urea depsipeptide analogs as activators of the CLPP endopeptidase” (priority 2013, dated 2018)
